This test addresses activated ERK2 (Homo sapiens (Human), UniProt P28482). The test can be described thus: Activated ERK2 kinase assay, ERK2 New conditions (AlphaScreen, ERKtide phosphorylation). As to conditions: 0.25 nM ERK2, 200 nM ERKtide peptide, 35 μM ATP, 30 min preincubation. The format is biochemical. On the procedure: The assay is carried out in 50 mM HEPES [pH 7.5], 5 mM MgCl2, 1 mM DTT, 0.01% Tween-20, 0.05% BSA using 0.25 nM ERK2, 200 nM ERKtide peptide and 35 μM ATP (all concentrations are final in the reaction) in a total volume of 10.25 μL. […] Compound dilution series are prepared in 100% DMSO. ERK2 is preincubated with compounds for 30 minutes at ambient temperature. Reaction is initiated by addition of a substrate cocktail of ERKtide peptide and ATP and is allowed to proceed for 2-3 hours at ambient temperature. Reaction is terminated by addition of 10 μL of a 2× stop buffer consisting of 100 mM Tris-Cl [pH 7.5], 25 mM EDTA, 0.01% Tween 20, 10 μg/mL of AlphaScreen Protein A Acceptor Beads, 10 μg/mL of Streptavidin Donor Beads (PerkinElmer, Waltham, Mass.), and 1.4 μg/mL phospho-EGF Receptor (Thr669) antibody (Cat #3056, Cell Signaling Technology, Danvers, Mass.). Terminated reactions are read, after overnight incubation in the dark, on an EnVision Multilabel Plate Reader (PerkinElmer, Waltham, Mass.), with excitation and emission wavelengths set to 680 nm and 570 nm, respectively. IC50 values are determined using a four-parameter fit.
A general note: Alpha assays give light when donor and acceptor beads are brought close together.
Chain of activated ERK2 (P28482 whole entry): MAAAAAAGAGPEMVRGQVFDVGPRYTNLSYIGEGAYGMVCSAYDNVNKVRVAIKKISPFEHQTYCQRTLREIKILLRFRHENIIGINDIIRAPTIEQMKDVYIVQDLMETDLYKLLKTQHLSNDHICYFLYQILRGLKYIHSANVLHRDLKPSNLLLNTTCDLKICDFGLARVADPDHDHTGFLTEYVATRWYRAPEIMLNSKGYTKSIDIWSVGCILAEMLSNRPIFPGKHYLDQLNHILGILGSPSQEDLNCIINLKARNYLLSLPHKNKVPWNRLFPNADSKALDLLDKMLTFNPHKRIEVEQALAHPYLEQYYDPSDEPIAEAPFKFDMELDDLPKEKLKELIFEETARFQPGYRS
A word on the IC50: it is the point on the concentration scale where inhibition reaches its midpoint. A high value points to weaker potency in that assay. On to `Nc1ncc([C@@H]2CN[C@H](CO)C2)cc1-c1ccc(C(=O)N[C@H](CO)c2cccc(Cl)c2)c(F)c1` [Example 7, 4-(2-amino-5-((3R,5S)-5-(hydroxymethyl)pyrrolidin-3-yl)pyridin-3-yl)-N—((S)-1-(3-chlorophenyl)-2-hydroxyethyl)-2-fluorobenzamide], for which the IC50 came out at 65.2 nM. The result for `Nc1ncc([C@H]2C[C@H]3COCC(=O)N3C2)cc1-c1ccc(C(=O)N[C@H](CO)c2cccc(Cl)c2)c(F)c1` [Example 8, 4-(2-amino-5-((7R,8aS)-4-oxohexahydro-1H-pyrrolo[2,1-c][1,4]oxazin-7-yl)pyridin-3-yl)-N—((S)-1-(3-chlorophenyl)-2-hydroxyethyl)-2-fluorobenzamide] reads 4.12 nM; that for `Nc1ncc([C@H]2C[C@H]3COC(=O)N3C2)cc1-c1ccc(C(=O)N[C@H](CO)c2cccc(Cl)c2)c(F)c1` [Example 9, 4-(2-amino-5-((6R,7aS)-3-oxohexahydropyrrolo[1,2-c]oxazol-6-yl)pyridin-3-yl)-N—((S)-1-(3-chlorophenyl)-2-hydroxyethyl)-2-fluorobenzamide], 3.57 nM; that for `N=C1OC[C@@H]2C[C@H](c3cnc(N)c(-c4ccc(C(=O)N[C@H](CO)c5cccc(Cl)c5)c(F)c4)c3)CN12` [Example 10, 4-(2-amino-5-((6R,7aS)-3-iminohexahydropyrrolo[1,2-c]oxazol-6-yl)pyridin-3-yl)-N—((S)-1-(3-chlorophenyl)-2-hydroxyethyl)-2-fluorobenzamide], 12.1 nM. For `Nc1ncc([C@H]2C[C@H]3COC(=S)N3C2)cc1-c1ccc(C(=O)N[C@H](CO)c2cccc(Cl)c2)c(F)c1` [Example 11, 4-(2-amino-5-((6R,7aS)-3-thioxohexahydropyrrolo[1,2-c]oxazol-6-yl)pyridin-3-yl)-N—((S)-1-(3-chlorophenyl)-2-hydroxyethyl)-2-fluorobenzamide] the value was 3.77 nM; for `Nc1ncc([C@H]2CC[C@H](O)CC2)nc1-c1ccc(C(=O)NCc2ccccc2)c(F)c1` [Example 14, 4-(3-amino-6-((1r,4r)-4-hydroxycyclohexyl)pyrazin-2-yl)-N-benzyl-2-fluorobenzamide], 12.7 nM; for `Nc1ncc([C@H]2CC[C@@H](O)CC2)nc1-c1ccc(C(=O)NCc2ccccc2)c(F)c1` [Example 15, 4-(3-amino-6-((1s,4s)-4-hydroxycyclohexyl)pyrazin-2-yl)-N-benzyl-2-fluorobenzamide], 235 nM.

Molecule `COC(=O)CCc1cnc(N)c(-c2ccc(C(=O)NCc3ccccc3)c(F)c2)n1` [Example 19, methyl 3-(5-amino-6-(4-(benzylcarbamoyl)-3-fluorophenyl)pyrazin-2-yl)propanoate] had an IC50 of 6030 nM. This IC50 is about 26-fold higher than that of the molecule before. The result for `CNC(=O)CCc1cnc(N)c(-c2ccc(C(=O)NCc3ccccc3)c(F)c2)n1` [Example 20, 4-(3-amino-6-(3-(methylamino)-3-oxopropyl)pyrazin-2-yl)-N-benzyl-2-fluorobenzamide] reads 1090 nM. For `CS(=O)(=O)CCc1cnc(N)c(-c2ccc(C(=O)NCc3ccccc3)c(F)c2)n1` [Example 21, 4-(3-amino-6-(2-(methylsulfonyl)ethyl)pyrazin-2-yl)-N-benzyl-2-fluorobenzamide] the value was 2670 nM; for `Nc1ncc(C2CCC(=O)NC2)cc1-c1ccc(C(=O)N[C@H](CO)c2cccc(Cl)c2)c(F)c1` (stereo partly drawn) [Example 25, 4-(2-amino-5-(6-oxopiperidin-3-yl)pyridin-3-yl)-N—((S)-1-(3-chlorophenyl)-2-hydroxyethyl)-2-fluorobenzamide], 0.343 nM; for `CN1CCC(c2cnc(N)c(-c3ccc(C(=O)N[C@H](CO)c4cccc(Cl)c4)c(F)c3)c2)CC1=O` (stereo partly drawn) [Example 26, 4-(2-amino-5-(1-methyl-2-oxopiperidin-4-yl)pyridin-3-yl)-N—((S)-1-(3-chlorophenyl)-2-hydroxyethyl)-2-fluorobenzamide], 3.27 nM.

The molecule `C[C@@H](NC(=O)c1ccc(-c2cc(C3CCN(C)C(=O)C3)cnc2N)cc1F)c1ccccc1` (stereo partly drawn) [Example 29, 4-(2-amino-5-(1-methyl-2-oxopiperidin-4-yl)pyridin-3-yl)-2-fluoro-N—((R)-1-phenylethyl)benzamide] came in with an IC50 of 75.2 nM. `CN1CC(c2cnc(N)c(-c3ccc(C(=O)N[C@H](CO)c4cccc(Cl)c4)c(F)c3)c2)CCC1=O` (stereo partly drawn) [Example 35, 4-(2-amino-5-(1-methyl-6-oxopiperidin-3-yl)pyridin-3-yl)-N—((S)-1-(3-chlorophenyl)-2-hydroxyethyl)-2-fluorobenzamide] showed a half-inhibitory concentration (IC50) of 1.09 nM. The result for `CN1C[C@@H](c2cnc(N)c(-c3ccc(C(=O)N[C@H](CO)c4cccc(Cl)c4)c(F)c3)c2)CCC1=O` [Example 36, 4-(2-amino-5-((R)-1-methyl-6-oxopiperidin-3-yl)pyridin-3-yl)-N—((S)-1-(3-chlorophenyl)-2-hydroxyethyl)-2-fluorobenzamide] reads 1.6 nM; that for `CN1C[C@H](c2cnc(N)c(-c3ccc(C(=O)N[C@H](CO)c4cccc(Cl)c4)c(F)c3)c2)CCC1=O` [Example 37, 4-(2-amino-5-((S)-1-methyl-6-oxopiperidin-3-yl)pyridin-3-yl)-N—((S)-1-(3-chlorophenyl)-2-hydroxyethyl)-2-fluorobenzamide], 1.05 nM.

As for `C[C@@H](NC(=O)c1ccc(-c2cc(C3CCC(=O)N(C)C3)cnc2N)cc1F)c1cccc(Cl)c1` (stereo partly drawn) [Example 38, 4-(2-amino-5-(1-methyl-6-oxopiperidin-3-yl)pyridin-3-yl)-N—((R)-1-(3-chlorophenyl)ethyl)-2-fluorobenzamide], the IC50 worked out at 8.09 nM. For `CN1CC(c2cnc(N)c(-c3ccc(C(=O)N[C@H](CO)c4ccccc4)c(F)c3)c2)CC1=O` (stereo partly drawn) [Example 41, 4-(2-amino-5-(1-methyl-5-oxopyrrolidin-3-yl)pyridin-3-yl)-2-fluoro-N—((S)-2-hydroxy-1-phenylethyl)benzamide] the value was 51 nM. The result for `CN1CC(c2cnc(N)c(-c3ccc(C(=O)N[C@H](CO)c4cccc(Cl)c4)c(F)c3)c2)CC1=O` (stereo partly drawn) [Example 42, 4-(2-amino-5-(1-methyl-5-oxopyrrolidin-3-yl)pyridin-3-yl)-N—((S)-1-(3-chlorophenyl)-2-hydroxyethyl)-2-fluorobenzamide] reads 5.44 nM; that for `CN1C[C@@H](c2cnc(N)c(-c3ccc(C(=O)N[C@H](CO)c4cccc(Cl)c4)c(F)c3)c2)CC1=O` [Example 43, 4-(2-amino-5-((R)-1-methyl-5-oxopyrrolidin-3-yl)pyridin-3-yl)-N—((S)-1-(3-chlorophenyl)-2-hydroxyethyl)-2-fluorobenzamide], 5.32 nM.

`CN1C[C@H](c2cnc(N)c(-c3ccc(C(=O)N[C@H](CO)c4cccc(Cl)c4)c(F)c3)c2)CC1=O` [Example 44, 4-(2-amino-5-((S)-1-methyl-5-oxopyrrolidin-3-yl)pyridin-3-yl)-N—((S)-1-(3-chlorophenyl)-2-hydroxyethyl)-2-fluorobenzamide] returned an IC50 of 4.77 nM.

`CC1(c2cnc(N)c(-c3ccc(C(=O)N[C@H](CO)c4ccccc4)c(F)c3)c2)CCOCC1` [Example 45, (S)-4-(2-Amino-5-(4-methyltetrahydro-2H-pyran-4-yl)pyridin-3-yl)-2-fluoro-N-(2-hydroxy-1-phenylethyl)benzamide]: the IC50 amounted to 3.61 nM. The IC50 values of the last two molecules are within 1.5-fold of each other.

As for `Nc1nccnc1-c1ccc(C(=O)NCc2ccccc2)cc1` [Example 46, 4-(3-aminopyrazin-2-yl)-N-benzylbenzamide], the IC50 stood at 4790 nM. The result for `C[C@@H](NC(=O)c1ccc(-c2nc(C3CCOCC3)cnc2N)cc1F)c1ccccc1` [Example 47, (R)-4-(3-amino-6-(tetrahydro-2H-pyran-4-yl)pyrazin-2-yl)-2-fluoro-N-(1-phenylethyl)benzamide] reads 0.818 nM; that for `Nc1ncc(C2CCOCC2)nc1-c1ccc(C(=O)N[C@@H]2CCCN(S(=O)(=O)c3ccccc3F)C2)c(F)c1` [Example 48, (R)-4-(3-amino-6-(tetrahydro-2H-pyran-4-yl)pyrazin-2-yl)-2-fluoro-N-(1-((2-fluorophenyl)sulfonyl)piperidin-3-yl)benzamide], 122 nM; that for `Nc1ncc(C2CCOCC2)nc1-c1ccc(C(=O)N[C@@H]2CCCN(S(=O)(=O)c3ccccc3)C2)c(F)c1` [Example 49, (R)-4-(3-amino-6-(tetrahydro-2H-pyran-4-yl)pyrazin-2-yl)-2-fluoro-N-(1-(phenylsulfonyl)piperidin-3-yl)benzamide], 45.9 nM. With `CN(C(=O)c1ccc(-c2nc(C3CCOCC3)cnc2N)cc1F)[C@H](CO)c1ccccc1` [Example 53, (S)-4-(3-amino-6-(tetrahydro-2H-pyran-4-yl)pyrazin-2-yl)-2-fluoro-N-(2-hydroxy-1-phenylethyl)-N-methylbenzamide], the IC50 was 12.3 nM. The result for `Nc1ncc(C2CCOCC2)nc1-c1ccc(C(=O)N2COC[C@@H]2c2ccccc2)cc1` [Example 54, (S)-(4-(3-amino-6-(tetrahydro-2H-pyran-4-yl)pyrazin-2-yl)phenyl)(4-phenyloxazolidin-3-yl)methanone] reads 107 nM; that for `CS(=O)(=O)N1CCC(c2cnc(N)c(-c3ccc(C(=O)N[C@H](CO)c4ccccc4)c(F)c3)n2)CC1` [Example 56, (S)-4-(3-amino-6-(1-(methylsulfonyl)piperidin-4-yl)pyrazin-2-yl)-2-fluoro-N-(2-hydroxy-1-phenylethyl)benzamide], 3.89 nM.

Values taken from patent publication US9242996B2 (Novartis AG, priority 2013, dated 2016).
